Reference: patent US11083725B2 (priority 2014, dated 2021)

System: NHBE cells
Assay: Biolog metabolic array: substrate use by NHBE cells with or without CA09 infection
Assay type: cell-based, human
Settings: for Substrate use, 590 nm absorbance normalized to zero hour, 1 hr: Biolog PMM2, 1 hr; for Substrate use, 590 nm absorbance normalized to zero hour, 5 hr: Biolog PMM2, 5 hr; for Substrate use, 590 nm absorbance normalized to zero hour, 7 hr: Biolog PMM2, 7 hr
[1] = Control (uninfected) NHBE cells
[2] = Virus (CA09-infected NHBE cells, MOI 1)
[3] = Virus: CA09-infected NHBE cells, MOI 1, Biolog PMM2
[4] = Virus (CA09-infected, MOI 1) NHBE cells

| Structure (SMILES) | 590 nm absorbance normalized to zero hour (substrate use), 1 hr [1] | 590 nm absorbance normalized to zero hour (substrate use), 2 hr [1] | 590 nm absorbance normalized to zero hour (substrate use), 3 hr [1] | 590 nm absorbance normalized to zero hour (substrate use), 4 hr [1] | 590 nm absorbance normalized to zero hour (substrate use), 6 hr [1] | 590 nm absorbance normalized to zero hour (substrate use), 8 hr [1] | 590 nm absorbance normalized to zero hour (substrate use), 9 hr [1] | 590 nm absorbance normalized to zero hour (substrate use), 10 hr [1] | 590 nm absorbance normalized to zero hour (substrate use), 11 hr [1] | 590 nm absorbance normalized to zero hour (substrate use), 1 hr [3] | 590 nm absorbance normalized to zero hour (substrate use), 2 hr [3] | 590 nm absorbance normalized to zero hour (substrate use), 3 hr [3] | 590 nm absorbance normalized to zero hour (substrate use), 4 hr [3] | 590 nm absorbance normalized to zero hour (substrate use), 5 hr [3] | 590 nm absorbance normalized to zero hour (substrate use), 6 hr [3] | 590 nm absorbance normalized to zero hour (substrate use), 7 hr [3] | 590 nm absorbance normalized to zero hour (substrate use), 8 hr [3] | 590 nm absorbance normalized to zero hour (substrate use), 9 hr [3] | 590 nm absorbance normalized to zero hour (substrate use), 10 hr [3] | 590 nm absorbance normalized to zero hour (substrate use), 11 hr [3] | further results |
| --- | --- | --- | --- | --- | --- | --- | --- | --- | --- | --- | --- | --- | --- | --- | --- | --- | --- | --- | --- | --- | --- |
| Nc1ncnc2c1ncn2[C@@H]1O[C@H](CO)[C@@H](O)[C@H]1O [Adenosine] | 2.85 | 1.34 | 1.67 | 1.86 | 2.50 | 3.10 | 3.78 | 3.46 | 3.32 | 1.39 | 1.23 | 1.60 | 1.77 | 1.96 | 2.16 | 2.38 | 2.56 | 2.88 | 2.56 | 2.60 | Substrate use, 590 nm absorbance normalized to zero hour, 1 hr [1]: 2.85; Substrate use, 590 nm absorbance normalized to zero hour, 5 hr [1]: 2.21; Substrate use, 590 nm absorbance normalized to zero hour, 7 hr [1]: 2.97; 590 nm absorbance normalized to zero hour (substrate use), 1 hr [2]: 1.39; 590 nm absorbance normalized to zero hour (substrate use), 2 hr [2]: 1.23; 590 nm absorbance normalized to zero hour (substrate use), 3 hr [2]: 1.60; 590 nm absorbance normalized to zero hour (substrate use), 4 hr [2]: 1.77; 590 nm absorbance normalized to zero hour (substrate use), 5 hr [2]: 1.96; 590 nm absorbance normalized to zero hour (substrate use), 6 hr [2]: 2.16; 590 nm absorbance normalized to zero hour (substrate use), 7 hr [2]: 2.38; 590 nm absorbance normalized to zero hour (substrate use), 8 hr [2]: 2.56; 590 nm absorbance normalized to zero hour (substrate use), 9 hr [2]: 2.88; 590 nm absorbance normalized to zero hour (substrate use), 10 hr [2]: 2.56; 590 nm absorbance normalized to zero hour (substrate use), 11 hr [2]: 2.60 |
| OC[C@@H](O)[C@@H](O)[C@@H](O)CO [Adonitol] | 0.57 | 0.78 | 0.93 | 0.98 | 1.35 | 1.40 | 1.55 | 1.43 | 1.46 | 0.21 | 0.26 | 0.29 | 0.31 | 0.34 | 0.36 | 0.38 | 0.39 | 0.42 | 0.44 | 0.43 | Substrate use, 590 nm absorbance normalized to zero hour, 1 hr [1]: 0.57; Substrate use, 590 nm absorbance normalized to zero hour, 5 hr [1]: 1.16; Substrate use, 590 nm absorbance normalized to zero hour, 7 hr [1]: 1.28; 590 nm absorbance normalized to zero hour (substrate use), 1 hr [2]: 0.21; 590 nm absorbance normalized to zero hour (substrate use), 2 hr [2]: 0.26; 590 nm absorbance normalized to zero hour (substrate use), 3 hr [2]: 0.29; 590 nm absorbance normalized to zero hour (substrate use), 4 hr [2]: 0.31; 590 nm absorbance normalized to zero hour (substrate use), 5 hr [2]: 0.34; 590 nm absorbance normalized to zero hour (substrate use), 6 hr [2]: 0.36; 590 nm absorbance normalized to zero hour (substrate use), 7 hr [2]: 0.38; 590 nm absorbance normalized to zero hour (substrate use), 8 hr [2]: 0.39; 590 nm absorbance normalized to zero hour (substrate use), 9 hr [2]: 0.42; 590 nm absorbance normalized to zero hour (substrate use), 10 hr [2]: 0.44; 590 nm absorbance normalized to zero hour (substrate use), 11 hr [2]: 0.43 |
| O=C(O)CC(O)(CC(=O)O)C(=O)O [Citric Acid] | 1.40 | 1.41 | 1.16 | 1.15 | 1.07 | 1.05 | 1.05 | 1.05 | 1.04 | 1.54 | 1.94 | 2.21 | 2.31 | 2.64 | 2.74 | 2.85 | 2.95 | 3.10 | 2.94 | 2.81 | Substrate use, 590 nm absorbance normalized to zero hour, 1 hr [1]: 1.40; Substrate use, 590 nm absorbance normalized to zero hour, 5 hr [1]: 1.22; Substrate use, 590 nm absorbance normalized to zero hour, 7 hr [1]: 1.04; 590 nm absorbance normalized to zero hour (substrate use), 1 hr [4]: 1.54; 590 nm absorbance normalized to zero hour (substrate use), 2 hr [4]: 1.94; 590 nm absorbance normalized to zero hour (substrate use), 3 hr [4]: 2.21; 590 nm absorbance normalized to zero hour (substrate use), 4 hr [4]: 2.31; 590 nm absorbance normalized to zero hour (substrate use), 5 hr [4]: 2.64; 590 nm absorbance normalized to zero hour (substrate use), 6 hr [4]: 2.74; 590 nm absorbance normalized to zero hour (substrate use), 7 hr [4]: 2.85; 590 nm absorbance normalized to zero hour (substrate use), 8 hr [4]: 2.95; 590 nm absorbance normalized to zero hour (substrate use), 9 hr [4]: 3.10; 590 nm absorbance normalized to zero hour (substrate use), 10 hr [4]: 2.94; 590 nm absorbance normalized to zero hour (substrate use), 11 hr [4]: 2.81 |
| O=C[C@H](O)[C@@H](O)[C@H](O)[C@H](O)CO [D-(+)-Glucose] |  |  |  |  |  |  |  |  |  | 0.82 | 1.44 | 1.76 | 1.96 | 2.64 | 2.91 | 3.23 | 3.59 | 4.21 | 4.43 | 5.05 |  |
| O=C[C@@H](O)[C@H](O)[C@H](O)CO [D-Arabinose] | 1.59 | 1.50 | 0.77 | 1.35 | 0.39 | 1.00 | 1.14 | 0.96 | 1.35 | 0.65 | 0.90 | 1.03 | 1.07 | 1.22 | 1.29 | 1.37 | 1.33 | 1.34 | 1.38 | 1.58 | Substrate use, 590 nm absorbance normalized to zero hour, 1 hr [1]: 1.59; Substrate use, 590 nm absorbance normalized to zero hour, 5 hr [1]: 0.99; Substrate use, 590 nm absorbance normalized to zero hour, 7 hr [1]: 1.04; 590 nm absorbance normalized to zero hour (substrate use), 1 hr [4]: 0.65; 590 nm absorbance normalized to zero hour (substrate use), 2 hr [4]: 0.90; 590 nm absorbance normalized to zero hour (substrate use), 3 hr [4]: 1.03; 590 nm absorbance normalized to zero hour (substrate use), 4 hr [4]: 1.07; 590 nm absorbance normalized to zero hour (substrate use), 5 hr [4]: 1.22; 590 nm absorbance normalized to zero hour (substrate use), 6 hr [4]: 1.29; 590 nm absorbance normalized to zero hour (substrate use), 7 hr [4]: 1.37; 590 nm absorbance normalized to zero hour (substrate use), 8 hr [4]: 1.33; 590 nm absorbance normalized to zero hour (substrate use), 9 hr [4]: 1.34; 590 nm absorbance normalized to zero hour (substrate use), 10 hr [4]: 1.38; 590 nm absorbance normalized to zero hour (substrate use), 11 hr [4]: 1.58 |
